Values quoted from earlier work as cited in patent publication US8318203B2, “Form of administration of racecadotril” (Bioprojet, priority 2006, dated 2012).

How the values were obtained:
[1] = racecadotrilate, active metabolite of the pro-drug racecadotril

Compound | solubility in water | half-life [1]
CC(=O)SCC(Cc1ccccc1)C(=O)NCC(=O)OCc1ccccc1 (racemic) [racecadotril, benzyl (RS)-2-[[2-[(acetylsulphanyl)methyl]-3-phenylpropanoyl]amino]acetate] | insoluble in water | 
O=C(O)CNC(=O)C(CS)Cc1ccccc1 (racemic) [racecadotrilate] |  | three to four
